Patent US8062669B2, “Vectorization system comprising nanoparticles of homogenous size of at least one polymer and at least one positively charged polysaccharide and method for the preparation thereof” (Bioalliance Pharma, priority 2002, dated 2011)

Procedure for CEM 4FX cells: (§1) The NIH 3T3 and NIH 3T3 EWS-Fli-1 (adherent cells) were sown on 6-well plates at 100,000 cells per well in their culture medium without puromycin and the IW35 cells (cells in suspension) in 12-well plates at the rate of 750,000 cells per well. Other cells in suspension CEM 4FX were also tested. They were sown at 10,000 cells per well in 96-well plates.
(§2) Different concentrations of CTAB and chitosan of various molecular weight were tested.
(§3) Two controls were used and corresponded to the cells in the culture medium on the one hand and in the culture medium containing 100 μl of NaCl 150 mM on the other hand. After 24 hours of incubation, the measurements of cytotoxicity were performed by a test measuring the activity of the mitochondrial dehydrogenase enzymes of the living cells by oxidation of MTT (3-(4,5-dimethyl thiazol-2-yl)-2,5-diphenyl tetrazolium bromide; SIGMA) in formazan. The amount of formazan produced is directly proportional to the number of metabolically active live cells. The cells were washed with PBS and 1 ml of the medium was added. The cells were then incubated at 37° C. with 100 μl of a solution of MTT (5 mg/ml in PBS) for 3 hours. 1 ml of a lysis solution (10% SDS, 10 mM Tris) was then added to each well. The cells were incubated at 37° C. overnight. The medium was homogenized and the optical density was read at 560 nm (Dynatech MRX).
Procedure for IW35 cells: as §1, §2, §3
Procedure for NIH 3T3 EWS-Fli1 cells: (§4) The NIH 3T3 and NIH 3T3 EWS-Fli-1 (adherent cells) were sown on 6-well plates at 100,000 cells per well in their culture medium without puromycin and the IW35 cells (cells in suspension) in 12-well plates at the rate of 750,000 cells per well.
(§5) For the first two cell types, the cells were sown 24 hours prior to their transfection. The medium was then eliminated and 100 μl of solution of the complex to be tested was brought into contact with the cells in 900 μl of medium.
as §2
(§6) Two controls were used and corresponded to the cells in the culture medium on the one hand and in the culture medium containing 100 μl of NaCl 150 mM on the other hand. After 24 hours of incubation, the measurements of cytotoxicity were performed by a test measuring the activity of the mitochondrial dehydrogenase enzymes of the living cells by oxidation of MTT (3-(4,5-dimethyl thiazol-2-yl)-2,5-diphenyl tetrazolium bromide; SIGMA) in formazan. The amount of formazan produced is directly proportional to the number of metabolically active live cells. The cells were washed with PBS and 1 ml of the medium was added. The cells were then incubated at 37° C. with 100 μl of a solution of MTT (5 mg/ml in PBS) for 3 hours. […] The medium was homogenized and the optical density was read at 560 nm (Dynatech MRX).
Procedure for NIH 3T3 cells: as §4, §5, §2, §6

With `CCCCCCCCCCCCCCCC[N+](C)(C)C.[Br-]` [CTAB, cetyl trimethyl ammonium bromide] the toxicity (NIH 3T3 cells) was “notable toxicity”, the toxicity (NIH 3T3 EWS-Fli1 cells) was “notable toxicity” and the toxicity (IW35 cells) was “elevated toxicity at low concentrations”. The toxicity (CEM 4FX cells) was “elevated toxicity at low concentrations”.
